Patent US8906825B2, “Herbicidal compositions comprising 4-amino-3-chloro-5-fluoro-6-(4-chloro-2-fluoro-3-methoxyphenyl) pyridine-2-carboxylic acid or a derivative thereof and triazolopyrimidine sulfonamides” (Dow AgroSciences LLC, priority 2012, dated 2014)

Columns and labels:
Format in all cases: in vivo
[1] = tested on: CIRAR (Cirsium arvense (L.) Scop., Canada thistle); experiment: Postemergence foliar-applied herbicidal mixtures, cereal crops, greenhouse (Example III); conditions: Pyroxsulam 3.75 gai/ha, visual score 0 to 100 percent after 20-22 days
Method: Seeds of the desired test plant species were planted in Sun Gro MetroMix® 306 planting mixture, which typically has a pH of 6.0 to 6.8 and an organic matter content of about 30 percent, in plastic pots with a surface area of 103.2 square centimeters (cm^2). […] The plants were grown for 7-36 days in a greenhouse with an approximate 14 hour photoperiod which was maintained at about 18° C. during the day and about 17° C. during the night. Nutrients and water were added on a regular basis and supplemental lighting was provided with overhead metal halide 1000-Watt lamps as necessary. The plants were employed for testing when they reached the second or third true leaf stage.
Treatments consisted of the benzyl ester of 4-amino-3-chloro-5-fluoro-6-(4-chloro-2-fluoro-3-methoxy-phenyl)pyridine-2-carboxylic acid (Compound A), formulated as an SC, a second cereal herbicide alone and then both in combination.
Other herbicidal components were applied on an active ingredient basis and included acetolactate synthase (ALS)-inhibiting herbicides (sulfonamide chemical class) florasulam formulated as Derby® and pyroxsulam formulated as PowerFlex®. A measured aliquot of benzyl ester of 4-amino-3-chloro-5-fluoro-6-(4-chloro-2-fluoro-3-methoxy-phenyl)pyridine-2-carboxylic acid (Compound A) was placed in 25 milliliter (mL) glass vials and diluted in a volume of 1.25% (v/v) AgriDex® crop oil concentrated to obtain a stock solution. Compound requirements are based upon a 12 mL application volume at a rate of 187 liters per hectare (L/ha). […] Formulated compounds were applied to the plant material with an overhead Mandel track sprayer equipped with an 8002E nozzle calibrated to deliver 187 L/ha over an application area of 0.503 square meters (m^2) at a spray height of 18 inches (46 cm) above average plant canopy. Control plants were sprayed in the same manner with the solvent blank.
(§1) The treated plants and control plants were placed in a greenhouse as described above and watered by sub-irrigation to prevent wash-off of the test compounds. After 20-22 days, the condition of the test plants as compared with that of the control plants was determined visually and scored on a scale of 0 to 100 percent where 0 corresponds to no injury and 100 corresponds to complete kill.
(§2) Colby's equation was used to determine the herbicidal effects expected from the mixtures (Colby, S. R. 1967. Calculation of the synergistic and antagonistic response of herbicide combinations. Weeds 15:20-22.).
(§3) The following equation was used to calculate the expected activity of mixtures containing two active ingredients, A and B: Expected=A+B−(A×B/100)

[2] = tested on: CYPIR (Cyperus iria L., rice flatsedge); experiment: Postemergence foliar-applied herbicidal mixtures, direct seeded rice, greenhouse (Example I)
Text: (§4) Seeds or nutlets of the desired test plant species were planted in a soil matrix prepared by mixing a loam or sandy loam soil (e.g., 28.6 percent silt, 18.8 percent clay, and 52.6 percent sand, with a pH of about 5.8 and an organic matter content of about 1.8 percent) and calcareous grit in an 80 to 20 ratio. The soil matrix was contained in plastic pots with a volume of 1 quart and a surface area of 83.6 square centimeters (cm^2). When required to ensure good germination and healthy plants, a fungicide treatment and/or other chemical or physical treatment was applied. The plants were grown for 8-22 days in a greenhouse with an approximate 14 h photoperiod which was maintained at about 29° C. during the day and about 26° C. during the night. Nutrients (Peters Excel® 15-5-15 5-Ca 2-Mg and iron chelate) were applied in the irrigation solution as needed and water was added on a regular basis. Supplemental lighting was provided with overhead metal halide 1000-Watt lamps as necessary. The plants were employed for testing when they reached the first through fourth true leaf stage.
(§5) Treatments consisted of the acid or esters of 4-amino-3-chloro-5-fluoro-6-(4-chloro-2-fluoro-3-methoxy-phenyl)pyridine-2-carboxylic acid (Compound A), each formulated as an SC (suspension concentrate), and various herbicidal components alone and in combination. Forms of compound A were applied on an acid equivalent basis.
(§6) Other herbicidal components were applied on an active ingredient basis and included acetolactate synthase (ALS)-inhibiting herbicides (sulfonamide chemical class) penoxsulam formulated as Grasp® SC, diclosulam formulated as Strongarm®, and cloransulam-methyl formulated as FirstRate®, flumetsulam formulated as Flumetsulam WG, and metosulam formulated as Eclipse®.
(§7) Treatment requirements were calculated based upon the rates being tested, the concentration of active ingredient or acid equivalent in the formulation, and a 12 mL application volume at a rate of 187 L/ha.
(§8) For treatments comprised of formulated compounds, measured amounts of compounds were placed individually in 25 mL glass vials and diluted in a volume of 1.25% (v/v) Agri-Dex® crop oil concentrated to obtain 12× stock solutions. […] Application solutions were prepared by adding an appropriate amount of each stock solution (e.g., 1 mL) and diluted to the appropriate final concentrations with the addition of 10 mL of an aqueous mixture of 1.25% (v/v) crop oil concentrate so that the final spray solutions contained 1.25+/−0.05% (v/v) crop oil concentrate.
(§9) All stock solutions and applications solutions were visually inspected for compound compatibility prior to application. Spray solutions were applied to the plant material with an overhead Mandel track sprayer equipped with an 8002E nozzle calibrated to deliver 187 L/ha over an application area of 0.503 m^2 at a spray height of 18 to 20 inches (46 to 50 cm) above average plant canopy height. Control plants were sprayed in the same manner with the solvent blank.
as §1, with “After approximately 3 weeks,” for “After 20-22 days,”, “the untreated” for “the control”, “injury or growth inhibition” for “injury”
as §2, §3

[3] = tested on: BRAPP (Brachiaria platyphylla (Griseb.) Nash, broadleaf signalgrass); experiment: as above
Text: as §4, §5, §6, §7, §8, §9
as §1, with “After approximately 3 weeks,” for “After 20-22 days,”, “the untreated” for “the control”, “injury or growth inhibition” for “injury”
as §2, §3

[4] = tested on: LEFCH (Leptochloa chinensis (L.) Nees, Chinese sprangletop); experiment: as above; conditions: Metosulam 6.25 gai/ha
Text: as §4, §5, §6, §7, §8, §9
as §1, with “After approximately 3 weeks,” for “After 20-22 days,”, “the untreated” for “the control”, “injury or growth inhibition” for “injury”
as §2, §3

[5] = tested on: ECHCG (Echinochloa crusgalli (L.) Beauv., barnyardgrass); experiment: as above
Text: as §4, §5, §6, §7, §8, §9
as §1, with “After approximately 3 weeks,” for “After 20-22 days,”, “the untreated” for “the control”, “injury or growth inhibition” for “injury”
as §2, §3

[6] = tested on: IPOHE (Ipomoea hederacea Jacq., ivyleaf morningglory); experiment: as above
Text: as §4, §5, §6, §7, §8, §9
as §1, with “After approximately 3 weeks,” for “After 20-22 days,”, “the untreated” for “the control”, “injury or growth inhibition” for “injury”
as §2, §3

[7] = Compound A n-Butyl Ester 4.38 gae/ha
[8] = Compound A n-Butyl Ester 8.75 gae/ha
[9] = Compound A n-Butyl Ester 17.5 gae/ha

COc1cc(OC)n2nc(NS(=O)(=O)c3c(C(F)(F)F)ccnc3OC)nc2n1 [Pyroxsulam, N-(5,7-dimethoxy[1,2,4]triazolo[1,5-a]pyrimidin-2-yl)-2-methoxy-4-(trifluoromethyl)-3-pyridinesulfonamide, reference compound]
CIRAR Obs [1]: 60%

Cc1ccn2nc(S(=O)(=O)Nc3c(F)cccc3F)nc2n1 [Flumetsulam, N-(2,6-difluorophenyl)-5-methyl[1,2,4]triazolo[1,5-a]pyrimidine-2-sulfonamide, reference compound]
Visual Weed Control (%) - 22 DAA CYPIR Obs ([2]; Flumetsulam 6.25 gai/ha): 20%
Visual Weed Control (%) - 22 DAA CYPIR Obs ([2]; Flumetsulam 12.5 gai/ha): 55%
Visual Weed Control (%) - 22 DAA CYPIR Obs ([2]; Flumetsulam 25 gai/ha): 30%
Visual Weed Control (%) - 22 DAA BRAPP Obs ([3]; Flumetsulam 6.25 gai/ha): 30%

COc1cc(OC)n2nc(S(=O)(=O)Nc3c(Cl)ccc(C)c3Cl)nc2n1 [Metosulam, N-(2,6-dichloro-3-methylphenyl)-5,7-dimethoxy[1,2,4]triazolo[1,5-a]pyrimidine-2-sulfonamide, reference compound]
Visual Weed Control (%) - 22 DAA LEFCH Obs [4]: 15%

CCCCOC(=O)c1nc(-c2ccc(Cl)c(OC)c2F)c(F)c(N)c1Cl [Compound A n-Butyl Ester]
Visual Weed Control (%) - 21 DAA BRAPP Obs [3, 7]: 0%
Visual Weed Control (%) - 21 DAA BRAPP Obs [3, 8]: 40%
Visual Weed Control (%) - 27 DAA ECHCG Obs [5, 7]: 0%
Visual Weed Control (%) - 27 DAA ECHCG Obs [5, 8]: 0%
Visual Weed Control (%) - 27 DAA ECHCG Obs [5, 9]: 90%
Visual Weed Control (%) - 27 DAA IPOHE Obs [6, 7]: 10%
Visual Weed Control (%) - 27 DAA IPOHE Obs [6, 8]: 10%
Visual Weed Control (%) - 27 DAA IPOHE Obs [6, 9]: 10%
